The IC50 is the concentration that inhibits the measured activity by half. By Kd is commonly meant a measure of binding affinity in units of concentration. Lower therefore signals higher affinity.

The values that follow come from patent US20250090699A1, “FAP TARGETING CYCLIC PEPTIDES AND CONJUGATES THEREOF” (Novartis AG, priority 2023, published 2025).

Where a name gives a salt, the structure may show the parent alone. Starred links: 1 amine or outer side, 2 acyl side, 3 side chain; linkers in the order of their positions; H or OH if unused. Non-standard residues stand in square brackets, D forms with d. Residues, ends and D or L forms follow the SMILES beside them. *: point of attachment. F(4OEtNHDOTA-Lu) = lutetium complex of (S)-2,2',2''-(10-(2-((2-(4-(2-amino-2-carboxyethyl)phenoxy)ethyl)amino)-2-oxoethyl)-1,4,7,10-tetraazacyclododecane-1,4,7-triyl)triacetic acid (Phe with 4-O-ethylamino-DOTA-Lu), O=C([O-])CN1CCN(CC(=O)[O-])CCN(CC(=O)NCCOc2ccc(C[C@H](N[*:1])C(=O)[*:2])cc2)CCN(CC(=O)[O-])CC1.[Lu+3]; DOTA = O=C(O)CN1CCN(CC(=O)O)CCN(CC(=O)*)CCN(CC(=O)O)CC1; Trp(7-Cl) = N[C@@H](Cc1c[nH]c2c(Cl)cccc12)C(=O)O; Trp(6-OH) = N[C@@H](Cc1c[nH]c2cc(O)ccc12)C(=O)O; 3Pal(6-NH2) = Nc1ccc(C[C@H](N)C(=O)O)cn1; AEF = NCCOc1ccc(C[C@H](N)C(=O)O)cc1; NMeF = CN[C@@H](Cc1ccccc1)C(=O)O; Ahp(2) = CCCCC[C@H](N)C(=O)O; Sar = CNCC(=O)O

For one test, the target named is T1, human FAP (Homo sapiens, UniProt Q12884).
T1 construct: the biotinylated His, Avi tag, human FAP (26-760, FAP-H82Q6); His; Avi tag (biotinylated); purchased AcroBiosystems FAP-H82Q6
T1 sequence (Q12884 26-760): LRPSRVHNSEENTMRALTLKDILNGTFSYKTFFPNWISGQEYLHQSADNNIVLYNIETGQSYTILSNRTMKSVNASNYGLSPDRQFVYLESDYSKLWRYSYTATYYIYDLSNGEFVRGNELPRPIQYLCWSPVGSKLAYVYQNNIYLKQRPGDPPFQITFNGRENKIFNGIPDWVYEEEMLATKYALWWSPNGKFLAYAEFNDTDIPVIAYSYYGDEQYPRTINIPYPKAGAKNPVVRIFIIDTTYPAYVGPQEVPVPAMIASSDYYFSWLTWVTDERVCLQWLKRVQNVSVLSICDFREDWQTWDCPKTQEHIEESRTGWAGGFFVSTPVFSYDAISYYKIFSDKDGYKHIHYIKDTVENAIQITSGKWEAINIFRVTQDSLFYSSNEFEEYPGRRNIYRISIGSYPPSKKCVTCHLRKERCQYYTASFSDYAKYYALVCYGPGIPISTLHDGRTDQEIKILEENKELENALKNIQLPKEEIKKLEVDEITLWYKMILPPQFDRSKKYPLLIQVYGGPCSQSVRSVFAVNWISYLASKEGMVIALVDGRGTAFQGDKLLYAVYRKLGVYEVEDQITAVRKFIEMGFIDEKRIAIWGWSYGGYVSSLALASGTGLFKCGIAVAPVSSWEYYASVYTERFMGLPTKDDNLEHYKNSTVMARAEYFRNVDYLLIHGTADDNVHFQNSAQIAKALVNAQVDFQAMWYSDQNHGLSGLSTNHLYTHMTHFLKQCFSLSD
The test can be described thus: Enzymatic FAP competition assay (Z-Gly-Pro-AMC fluorescence), human FAP. The format is biochemical. The following applies: read-out: h. FAP, Enz., IC50. Summed up: (§1)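 IC50 values come from curve fitting of duplicate % inhibition data on AMC fluorescence (ex 380, em 460 nm) after 4 h at 22-24° C with 50 μM Z-Gly-Pro-AMC. Beforehand, peptides up to 1 μM (14 levels) sat 24 h with 0.01 nM human (26-760) or mouse (26-761) tagged FAP in phosphate buffer pH 7.5, NaCl, Tween20, 1% DMSO.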

The target in test [1] is T2, mouse FAP (Mus musculus, UniProt P97321).
T2 construct: biotinylated His, Avi tag, mouse FAP (26-761, FAP-M82Q5); His; Avi tag (biotinylated); purchased AcroBiosystems FAP-M82Q5
T2 sequence (P97321 26-761): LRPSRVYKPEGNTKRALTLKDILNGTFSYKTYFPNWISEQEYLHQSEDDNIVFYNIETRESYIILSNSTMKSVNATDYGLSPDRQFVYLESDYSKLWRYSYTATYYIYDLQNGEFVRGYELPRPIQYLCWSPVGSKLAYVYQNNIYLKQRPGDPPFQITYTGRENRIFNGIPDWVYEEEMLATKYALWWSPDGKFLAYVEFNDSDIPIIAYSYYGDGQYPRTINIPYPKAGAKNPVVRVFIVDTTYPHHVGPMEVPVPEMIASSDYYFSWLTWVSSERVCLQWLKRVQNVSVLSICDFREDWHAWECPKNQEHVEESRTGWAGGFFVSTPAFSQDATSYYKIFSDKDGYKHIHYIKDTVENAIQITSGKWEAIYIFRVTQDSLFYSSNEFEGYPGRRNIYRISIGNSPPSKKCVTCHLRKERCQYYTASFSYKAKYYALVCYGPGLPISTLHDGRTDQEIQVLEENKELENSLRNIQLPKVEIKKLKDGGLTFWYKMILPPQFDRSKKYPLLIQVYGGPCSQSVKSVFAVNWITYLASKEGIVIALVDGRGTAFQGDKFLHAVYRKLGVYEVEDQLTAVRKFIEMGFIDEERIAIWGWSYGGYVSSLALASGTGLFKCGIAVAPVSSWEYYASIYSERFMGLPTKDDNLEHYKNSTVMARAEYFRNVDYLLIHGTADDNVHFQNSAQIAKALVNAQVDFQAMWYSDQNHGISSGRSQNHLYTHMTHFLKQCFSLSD
The test can be described thus: Enzymatic FAP competition assay (Z-Gly-Pro-AMC fluorescence), mouse FAP. Particulars: read-out: m. FAP, Enz., IC50. The test is classed as biochemical. Summed up: as §1

The target in test [2] is T2, mouse FAP. Briefly: Surface plasmon resonance (SPR) for peptide affinity, mouse FAP. The test is classed as binding. Summed up:
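KD values come from a 1:1 kinetic fit of single-cycle SPR data: 8 peptide concentrations, 25 °C, 30 μL/min, HEPES-buffered saline pH 7.6 with 2% DMSO. Targets were His/Avi-tagged human (26-760) or mouse (26-761) FAP, amine-coupled to CM5 or held on a CAPture chip.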

As to `CCCCC[C@@H]1NC(=O)[C@H](Cc2ccc(O)cc2)NC(=O)[C@H](Cc2ccccc2)N(C)C(=O)CNC(=O)CNC(=O)CN(C)C(=O)[C@H](CC(=O)O)NC(=O)[C@H](Cc2ccc(O)cc2)NC(=O)CNC(=O)[C@H](Cc2c[nH]c3ccccc23)NC1=O` [Example A68, Gly-Gly-NMePhe-Tyr-Ahp-Trp-Gly-Tyr-Asp-NMeGly] (cyclo([Ahp(2)]WGYD[Sar]GG[NMeF]Y)), the IC50 on human FAP turned out to be 12 nM; on mouse FAP [1], 80 nM. At mouse FAP [2], this molecule yielded a Kd of 35 nM.

On to `CCCCC[C@@H]1NC(=O)[C@H](Cc2ccc(O)cc2)NC(=O)[C@H](Cc2ccccc2)N(C)C(=O)CNC(=O)[C@H](CCCCN)NC(=O)[C@H]2CCCN2C(=O)[C@H](CC(=O)O)NC(=O)[C@H](Cc2ccc(O)cc2)NC(=O)CNC(=O)[C@H](Cc2c[nH]c3cc(O)ccc23)NC1=O` [Example A24, Lys-Gly-NMePhe-Tyr-Ahp-W(6OH)-Gly-Tyr-Asp-D-Pro, TFA salt] (cyclo([Ahp(2)][Trp(6-OH)]GYD[dP]KG[NMeF]Y)), for which the IC50 was found to be 0.37 nM at human FAP and 1.3 nM at mouse FAP [1]. This molecule returned a Kd at mouse FAP [2] of 0.85 nM.

Consider “Gly-Gly-NMePhe-F(4OEtNHDOTA-Lu)-Ahp-Trp-Gly-3PyA(6NH2)-Asp-D-Pro (cyclo(GG[NMeF][F(4OEtNHDOTA-Lu)][Ahp(2)]WG[3Pal(6-NH2)]D[dP]); also: Lu complex of DOTA) [Example C24]”, for which the IC50 in the test with human FAP was 0.013 nM; with mouse FAP [1] it was 0.059 nM. The molecule further registered a Kd in the test with mouse FAP [2] of 0.035 nM.

For `CCCCC[C@@H]1NC(=O)[C@H](Cc2ccc(OCCNC(=O)CN3CCN(CC(=O)O)CCN(CC(=O)O)CCN(CC(=O)O)CC3)cc2)NC(=O)[C@H](Cc2ccccc2)N(C)C(=O)CNC(=O)CNC(=O)[C@H]2CCCN2C(=O)[C@H](CC(=O)O)NC(=O)[C@H](Cc2ccc(O)cc2)NC(=O)CNC(=O)[C@H](Cc2c[nH]c3ccccc23)NC1=O` [Example B23, Gly-Gly-NMePhe-F(4OEtNHDOTA)-Ahp-Trp-Gly-Tyr-Asp-D-Pro, TFA salt] (cyclo([AEF](DOTA)[Ahp(2)]WGYD[dP]GG[NMeF])), the IC50 on human FAP stood at 0.012 nM; at mouse FAP [1] it was 0.059 nM. This molecule registered a Kd on mouse FAP [2] of 0.077 nM.

Take `CCCCC[C@@H]1NC(=O)[C@H](Cc2ccc(O)cc2)NC(=O)[C@H](Cc2ccccc2)N(C)C(=O)CNC(=O)CNC(=O)[C@H]2CCCN2C(=O)[C@H](CC(N)=O)NC(=O)[C@H](Cc2ccc(O)cc2)NC(=O)CNC(=O)[C@H](Cc2c[nH]c3ccccc23)NC1=O` [Example A58, Gly-Gly-NMePhe-Tyr-Ahp-Trp-Gly-Tyr-Asn-D-Pro] (cyclo([Ahp(2)]WGYN[dP]GG[NMeF]Y)): the IC50 at human FAP was 19 nM; on mouse FAP [1], 46 nM. For the same molecule, binding on mouse FAP [2] was put at a Kd of 75 nM.

As to `CCCCC[C@@H]1NC(=O)[C@H](Cc2ccc(O)cc2)NC(=O)[C@H](Cc2ccccc2)N(C)C(=O)CNC(=O)[C@H](CCCCN)NC(=O)[C@H]2CCCN2C(=O)[C@H](CC(=O)O)NC(=O)[C@H](Cc2ccc(O)cc2)NC(=O)CNC(=O)[C@H](Cc2c[nH]c3c(Cl)cccc23)NC1=O` [Example A25, Lys-Gly-NMePhe-Tyr-Ahp-W(7Cl)-Gly-Tyr-Asp-D-Pro, TFA salt] (cyclo([Ahp(2)][Trp(7-Cl)]GYD[dP]KG[NMeF]Y)), the IC50 at human FAP came to 0.209 nM; at mouse FAP [1] it was 0.86 nM. On mouse FAP [2], this molecule gave a Kd of 0.47 nM.

As to `CCCCC[C@@H]1NC(=O)[C@H](Cc2ccc(O)cc2)NC(=O)[C@H](Cc2ccccc2)NC(=O)CNC(=O)[C@H](CCCCN)NC(=O)[C@H]2CCCN2C(=O)[C@H](CC(=O)O)NC(=O)[C@H](Cc2ccc(O)cc2)NC(=O)CNC(=O)[C@H](Cc2c[nH]c3ccccc23)NC1=O` [Example A22, Lys-Gly-Phe-Tyr-Ahp-Trp-Gly-Tyr-Asp-D-Pro, TFA salt] (cyclo([Ahp(2)]WGYD[dP]KGFY)), the IC50 on human FAP worked out at 0.33 nM; at mouse FAP [1], 0.67 nM. The molecule further came in with a Kd at mouse FAP [2] of 0.87 nM.
